Each structure is given as a SMILES string. Counter-ions that a name gives are not always drawn.

The conditions of assay [1]: double-blind clinical trial (Loisy et al. 1985); cited from earlier work.
For assay [2] the following is noted: animal experimental model (Miner et al.; Costall et al. 1986); cited from earlier work.
For a further assay, the target named is 5-HT M-receptor. The conditions noted are these: 5-HT receptor antagonism; literature values (Fozard et al.); cited from earlier work.
The test system of assay [3] is Von Bezold-Jarisch Reflex induced by 5-HT. The experiment in a line: Von Bezold-Jarisch Reflex induced by 5-HT injected intravenously into the rat. In kind it is in vivo. The text has this:
The activity of these compounds against 5-HT can be assessed in vivo by measurement of the effect of the compound on the Von Bezold-Jarisch Reflex induced by 5-HT injected intravenously into the rat (see Paintal A. S., Physiol. Rev., 53, 159-227 […]; J. R. Fozard, Naunyn-Schmiedeberg's Arch. Pharmacol., 326, (1984) 36-44). The transient cardiac slowing arises from an increased afferent vagus activity arising from stimulation by 5-HT of sensory afferent fibers in and around the heart.

For assay [4] the following is noted: slow intravenous injection, 10 mg; cited from earlier work.
[5] abbreviates: doses of 0.01-0.1 mg/kg given intravenously.
[6] abbreviates: doses of 0.25-1 mg/kg given orally.

On to `CN1[C@@H]2CC[C@H]1C[C@@H](OC(=O)c1cc(Cl)cc(Cl)c1)C2` [3,5-dichlorobenzoyltropine], for which the “treatment of the acute migraine attack” value in assay [1] is on record as “proved an effective treatment”. The “prevention of nausea and vomiting induced by cancer chemotherapeutic agents” value (shortened to “prevention”) in assay [2] is “highly effective”. In the case of `CN1[C@@H]2CC[C@H]1C[C@@H](OC(=O)c1c[nH]c3ccccc13)C2` [(3α-tropanyl)-lH-indole-3-carboxylic acid ester], the “prevention” value in assay [2] is listed as “highly effective”. As usually defined, the pA2 is the negative logarithm of the molar antagonist concentration that doubles the agonist concentration needed for the same response. Regarding `CN1[C@@H]2CC[C@H]1C[C@@H](OC(=O)c1ccccc1)C2` [benzoyltropine], at 5-HT M-receptor, the pA2 is 7.2. In the case of `Cc1cc(C)cc(C(=O)O[C@@H]2C[C@@H]3C[C@@H]4C[C@H](C2)N3CC4=O)c1` [endo-8-(3,5-dimethylbenzoyloxy)hexahydro-2,6-methano-2H-quinolizin3(4H)-one], the “suppression of the Von Bezold-Jarisch Reflex response” value in assay [3] (setting [5]) and in assay [3] (setting [6]) was “suppressed the response dose-dependently” each time. With `O=C(O[C@@H]1C[C@@H]2C[C@@H]3C[C@H](C1)N2CC3=O)c1c[nH]c2ccccc12` [endo-hexahydro-8-(3-indolylcarbonyloxy)-2,6-methano-2H-quinolizin-3(4H)onehydrochloride], the “suppression of the Von Bezold-Jarisch Reflex response” value in assay [3] (setting [5]) and in assay [3] (setting [6]) was “suppressed the response dose-dependently” throughout. Consider `CCN(CC)CCNC(=O)c1cc(Cl)c(N)cc1OC` [metoclopramide], for which, at 5-HT M-receptor, the pA2 is given as 7.2. The “relief of an acute migraine attack” value in assay [4] is “immediate relief”. Moreover, the “prevention” value in assay [2] is “highly effective”. In the case of `COC(=O)[C@H]1[C@@H](OC(=O)c2ccccc2)C[C@@H]2CC[C@H]1N2` [nor (-) cocaine], the pA2 on 5-HT M-receptor was 7.7. In the case of `CN1[C@@H]2CC[C@H]1C[C@H](OC(=O)c1ccccc1)C2` [pseudotropyl benzoate], the pA2 at 5-HT M-receptor is listed as 7.0.
